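Cells were grown in 96-well plates and exposed to each compound for 48 hours at five concentrations; endpoints were interpolated linearly between bracketing concentrations, or set to the highest concentration if not reached. Here, GI50 denotes the concentration required for 50% inhibition of growth.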 The source made the active and inactive calls. Rule as the data show it: active = GI50 up to about 1.1 µM and inactive = higher.
Columns and labels:
Experiment in all cases: NCI anticancer screen, dose series, 48 h
786-0 = tested on: 786-0
A498 = tested on: A498
A549 = tested on: A549
ACHN = tested on: ACHN
CAKI-1 = tested on: CAKI-1
CCRF-CEM = tested on: CCRF-CEM
COLO 205 = tested on: COLO 205
DLD-1 = tested on: DLD-1
DMS-114 = tested on: DMS-114
DMS-273 = tested on: DMS-273
EKVX = tested on: EKVX
HCC 2998 = tested on: HCC 2998
HCT-116 = tested on: HCT-116
HCT-15 = tested on: HCT-15
HL-60 = tested on: HL-60
HOP-18 = tested on: HOP-18
HOP-62 = tested on: HOP-62
HOP-92 = tested on: HOP-92
HT-29 = tested on: HT-29
IGROV-1 = tested on: IGROV-1
K562 = tested on: K562
KM-20L2 = tested on: KM-20L2
KM12 = tested on: KM12
LOX IMVI = tested on: LOX IMVI
LXFL 529 = tested on: LXFL 529
M14 = tested on: M14
M19-MEL = tested on: M19-MEL
MCF7 = tested on: MCF7
MOLT-4 = tested on: MOLT-4
Malme-3M = tested on: Malme-3M
NCI-H226 = tested on: NCI-H226
NCI-H23 = tested on: NCI-H23
NCI-H460 = tested on: NCI-H460
NCI-H522 = tested on: NCI-H522
NCI/ADR-RES = tested on: NCI/ADR-RES
OVCAR-3 = tested on: OVCAR-3
OVCAR-4 = tested on: OVCAR-4
OVCAR-5 = tested on: OVCAR-5
OVCAR-8 = tested on: OVCAR-8
RPMI-8226 = tested on: RPMI-8226
RXF 393 = tested on: RXF 393
RXF 631 = tested on: RXF 631
SF-268 = tested on: SF-268
SF-295 = tested on: SF-295
SF-539 = tested on: SF-539
SK-MEL-28 = tested on: SK-MEL-28
SK-MEL-2 = tested on: SK-MEL-2
SK-MEL-5 = tested on: SK-MEL-5
SK-OV-3 = tested on: SK-OV-3
SN12C = tested on: SN12C
SNB-19 = tested on: SNB-19
SNB-75 = tested on: SNB-75
SNB-78 = tested on: SNB-78
SR = tested on: SR
SW-620 = tested on: SW-620
TK-10 = tested on: TK-10
UACC-257 = tested on: UACC-257
UACC-62 = tested on: UACC-62
UO-31 = tested on: UO-31
XF498 = tested on: XF498

With `CSC[S+]([O-])C[C@H](CO)NC(=O)/C=C/c1c(C)[nH]c(=O)[nH]c1=O` (stereo not given in full) the GI50 (786-0) was 1740 nM (inactive), the GI50 (A498) was 378 nM (active) and the GI50 (A549) was 1150 nM (inactive). For the same compound, the GI50 (ACHN) was 1480 nM (inactive), the GI50 (CAKI-1) was 1650 nM (inactive) and the GI50 (CCRF-CEM) was 1190 nM (inactive). For the same compound, the GI50 (COLO 205) was 1430 nM (inactive), the GI50 (DLD-1) was 1600 nM (inactive) and the GI50 (DMS-114) was 757 nM (active). The GI50 (DMS-273) was 1430 nM (inactive), the GI50 (EKVX) was 1870 nM (inactive) and the GI50 (HCC 2998) was 1450 nM (inactive). The GI50 (HCT-116) was 1660 nM (inactive), the GI50 (HCT-15) was 1830 nM and the GI50 (HL-60) was 1200 nM (inactive). For the same compound, the GI50 (HOP-18) was 2850 nM (inactive), the GI50 (HOP-62) was 1150 nM (inactive) and the GI50 (HOP-92) was 257 nM (active). For the same compound, the GI50 (HT-29) was 1850 nM (inactive), the GI50 (IGROV-1) was 614 nM (active) and the GI50 (K562) was 1320 nM (inactive). For the same compound, the GI50 (KM-20L2) was 979 nM (active), the GI50 (KM12) was 1340 nM (inactive) and the GI50 (LOX IMVI) was 1110 nM (active). The GI50 (LXFL 529) was 1960 nM (inactive), the GI50 (M14) was 1160 nM (inactive) and the GI50 (M19-MEL) was 718 nM (active). The GI50 (MCF7) was 1800 nM (inactive), the GI50 (MOLT-4) was 1920 nM (inactive) and the GI50 (Malme-3M) was 492 nM (active). The GI50 (NCI-H226) was 670 nM (active), the GI50 (NCI-H23) was 644 nM (active) and the GI50 (NCI-H460) was 480 nM (active). For the same compound, the GI50 (NCI-H522) was 731 nM (active), the GI50 (NCI/ADR-RES) was 1270 nM (inactive) and the GI50 (OVCAR-3) was 1130 nM (inactive). For the same compound, the GI50 (OVCAR-4) was 251 nM (active), the GI50 (OVCAR-5) was 2060 nM (inactive) and the GI50 (OVCAR-8) was 1430 nM (inactive). The GI50 (RPMI-8226) was 1790 nM (inactive), the GI50 (RXF 393) was 804 nM (active) and the GI50 (RXF 631) was 2580 nM (inactive). The GI50 (SF-268) was 277 nM (active), the GI50 (SF-295) was 457 nM (active) and the GI50 (SF-539) was 741 nM (active). The GI50 (SK-MEL-28) was 767 nM (active), the GI50 (SK-MEL-2) was 1080 nM (active) and the GI50 (SK-MEL-5) was 2440 nM (inactive). The GI50 (SK-OV-3) was 1250 nM (inactive), the GI50 (SN12C) was 776 nM (active) and the GI50 (SNB-19) was 520 nM (active). For the same compound, the GI50 (SNB-75) was 236 nM (active), the GI50 (SNB-78) was 318 nM (active) and the GI50 (SR) was 2040 nM (inactive). For the same compound, the GI50 (SW-620) was 2210 nM (inactive), the GI50 (TK-10) was 4020 nM (inactive) and the GI50 (UACC-257) was 1380 nM (inactive). The GI50 (UACC-62) was 1010 nM (active), the GI50 (UO-31) was 1610 nM (inactive) and the GI50 (XF498) was 214 nM (active).
